Source: BindingDB's records for doi:10.1021/jm00102a019 (Oregon State University, 1993)

Molecular target: Delta-type opioid receptor (Cavia porcellus)
Test: Tested for inhibitory effect on binding of [3H]DPDPE to opioid receptor delta in guinea pig cerebellum membranes

Structure (SMILES)	Ki
C=CCN(CC=C)[C@@H](Cc1ccc(O)cc1)C(=O)NCC(=O)NCC(=O)N[C@@H](Cc1ccccc1)C(=O)N[C@@H](CC(C)C)C(=O)N[C@@H](CCCNC(=N)N)C(=O)N[C@@H](CCCNC(=N)N)C(=O)N[C@H](C(=O)N[C@@H](CCCNC(=N)N)C(=O)N1CCC[C@@H]1C(=O)N[C@@H](CCCCN)C(=O)O)[C@@H](C)CC	0.149 µM
CC[C@H](C)[C@H](NC(=O)[C@H](CCCNC(=N)N)NC(=O)[C@H](CCCNC(=N)N)NC(=O)[C@H](CC(C)C)NC(=O)[C@H](Cc1ccccc1)NC(=O)CNC(=O)CNC(=O)[C@H](Cc1ccc(O)cc1)NCC1CC1)C(=O)N[C@@H](CCCNC(=N)N)C(=O)N1CCC[C@@H]1C(=O)N[C@@H](CCCCN)C(=O)O	0.558 µM
